The values below come from patent US5071858A, “Antipsychotic benzothiopyranylamines” (Ciba-Geigy Corporation, priority 1990, dated 1991).

The target in data set [1] is T1, serotonin-2 receptor (5HT-2 receptor) (Rattus norvegicus, UniProt P14842).
T1 construct: membrane preparations of frontal/parietal cortex from male Sprague-Dawley rats; from tissue; host or cells: frontal/parietal cortex membranes of male Sprague-Dawley rats
Briefly: serotonin-2 receptor binding assay (3H-ketanserin displacement). To be noted: frontal/parietal cortex membranes of male Sprague-Dawley rats. The method, then:
The compounds described above are active e.g. in the following test system indicative of serotonin-2 receptor antagonism: The serotonin-2 receptor (also named 5-hydroxytryptamine-2 or 5HT-2 receptor) binding properties are determined in vitro by measuring the ability of said compounds to inhibit the specific binding of ^3 H-ketanserin in membrane preparations of frontal/parietal cortex from male Sprague-Dawley rats essentially as described by
Battaglia et al. in Life Sciences 33, 2011 (1983). IC50 values, representing the concentration of compound required to displace 50% of ^3 H-ketanserin, are determined by log-logit analysis of the specific binding data. Illustrative of the invention, the compound of example 1 is effective in the serotonin-2 receptor binding assay having an […] value of about 5 nM.

Data set [2] relates to Sidman avoidance responding. The data set is described as follows: Sidman avoidance model. Particulars: squirrel monkeys. In kind it is in vivo, squirrel monkey (Samiri sciureus). The method, then: The test is carried out as follows: Adult male squirrel monkeys (Samiri sciureus, 700-1200 g) are trained to press a lever to delay by 20 sec. the delivery of a brief electrical footshock. If the animal fails to respond within a 20 sec. interval, brief (0.5 sec.) shocks (5 mA) are delivered every 20 sec. until the animal again presses the lever. The total number of avoidance responses and avoidance failures (shocks received) are recorded during the test session, which lasts 4 hours. The monkeys are tested two days per week, the first day serving as a baseline control. The test compound is administered orally in a cornstarch vehicle 10 min. prior to the start of the test session. […] An approximate dose ratio of three between avoidance blockade and induction of dyskinesias is found for the compound of example 1.

T1 sequence (P14842 whole entry): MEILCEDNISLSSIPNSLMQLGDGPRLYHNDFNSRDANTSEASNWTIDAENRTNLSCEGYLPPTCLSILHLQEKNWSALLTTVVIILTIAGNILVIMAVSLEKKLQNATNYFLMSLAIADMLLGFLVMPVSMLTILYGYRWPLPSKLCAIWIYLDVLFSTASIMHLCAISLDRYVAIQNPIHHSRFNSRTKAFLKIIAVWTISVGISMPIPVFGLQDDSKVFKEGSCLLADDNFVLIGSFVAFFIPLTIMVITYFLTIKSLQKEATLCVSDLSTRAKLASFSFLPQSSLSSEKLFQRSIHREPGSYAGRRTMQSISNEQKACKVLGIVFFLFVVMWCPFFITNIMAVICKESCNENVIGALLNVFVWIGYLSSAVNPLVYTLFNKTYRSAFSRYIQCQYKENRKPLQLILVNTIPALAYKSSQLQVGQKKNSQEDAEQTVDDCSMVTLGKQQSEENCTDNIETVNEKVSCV

In the case of `O=C(c1ccc(F)cc1)C1CCN(CC2CSc3ccc(F)cc3C2)CC1` (centres unmarked) [Example 1, 1-[(6-Fluoro-3,4-dihydro-2H-1-benzothiopyran-3-yl)methyl]-4-piperidinyl p-fluorophenyl ketone], in data set [1], the EC50 is roughly 5 nM. Moreover, the “dose ratio between avoidance blockade and induction of dyskinesias” value in data set [2] was “three”.
